From patent publication US20100261662A1, “UTILIZATION OF MURAL THROMBUS FOR LOCAL DRUG DELIVERY INTO VASCULAR TISSUE” (ENDOLOGIX, INC., priority 2009, published 2010)

Legend:
[1] = test system: collagen contained within the vascular tissue; assay: Short-term application of catechin to vascular tissue; conditions: short-term (approximately 10-30 minute) application
Source text: Catechin can be delivered in solution form into the mural thrombus. This delivery method pathway can be used, without limitation, when a short-acting application of a high-concentration of catechin is desired. […] In some embodiments, the concentration of the agent can be in the range from approximately 0.01% to approximately 20%, or between approximately 2.0% and approximately 10.0%, or to or from any values within these ranges.

skin collagen = conditions: rats treated with catechin; cited from earlier work

Q: Which “stabilization of collagen in vascular tissue” value [1] does the source give for catechin here?
A: can stabilize the collagen

Q: And the “stability of skin collagen against enzymatic degradation” value (skin collagen)?
A: stable against enzymatic degradation
